Test results reported in patent publication US20240254135A1, “POLYPHENOL COMPOUNDS” (Epirium Bio Inc., priority 2022, published 2024).

Experiments:
[1] = biological target: T1, mitochondrial ATP synthase (Mus musculus, UniProt P56480+Q03265); assay: Maximal ATP hydrolysis capacity in frozen heart mitochondria; assay type: biochemical; conditions: frozen mitochondria (FIGS. 3 and 4)
T1 construct: from tissue; host or cells: mouse heart, isolated mitochondria (fresh or frozen)
Description: ATP hydrolysis capacity or state 4 acidification was measured using Seahorse XF96 as described in Divakaruni et al. (2018) Anal Biochem 552:60-65 and Acin-Perez et al. (2021) Life 11(9):949, in MAS (70 mM Sucrose, 220 mM Mannitol, 5 mM KH2PO4, 5 mM MgCl2, 1 mM EGTA, 2 mM HEPES; pH 7.2). Plates were loaded with 0.75-1.5 μg of mouse heart mitochondria, or 25 μg of cell lysate. Cell lysates were prepared by subjecting the samples to 4 cycles of free thaw (liquid nitrogen—37° C. water bath) before measuring protein concentration. When assessing compounds effect on respirometry, the compounds were added in MAS after sample centrifugation. Initial respiration of the samples was sustained by the addition of 5 mM succinate+2 μM rotenone in the MAS after centrifugation. Injections were performed at the following final concentration in the well: Antimycin A (2 μM), oligomycin (5 μM), FCCP (1 μM), ATP (20 mM). To assess maximal ATP concentration, ATP was injected consecutively.
An additional assay was developed to determine the maximal ATP hydrolysis capacity in frozen mitochondria. Maximal ATP hydrolytic capacity was assessed in frozen heart mitochondria where mitochondrial respiration is inhibited by Antimycin A and maximal ATP hydrolysis is driven by co-injection of FCCP and ATP, followed by inhibition in the presence of oligomycin.

[2] = Pharmacokinetics: quantitative determination in mice plasma (LCMS); assay type: in vivo, C57BL/6 Mice; conditions: C57BL/6, mouse, 10 mg/kg PO single dose, 10% NMP vehicle; for AUC(0-t): read-out: AUC0-4 h
Description: C57BL/6 Mice, Age 7-9 weeks, body weight range 20-25 g were used. The mice were fasted overnight. Mice were dosed once a day for a single day at 10 mg/kg, 10 mg/kg. 6 time-points were used for whole blood. 10% NMP was used as a vehicle. 9 animals were used per treatment, with three groups of three animals each. Group 1 had time points at 15 and 60 minutes, Group 2 had time points at 30 and 120 minutes, and Group 3 had time points at 90 and 240 minutes. An Oral (PO) route was used. Plasma and brain samples were collected (brain sample collected at terminal time point). Plasma was collected through the centrifugation of whole blood at 10,000 rpm for 10 minutes at 4° C. Samples were stored at −80° C. until processing.
1.00 mg/mL in 100% MeOH PP vials (prepared at RT yellow light) at 2-8° C. were used as stock solution. 12.22-50000 ng/ml using 80% MeOH PP vials (prepared at RT yellow light) at 2-8° C. were used as working solution. 0.98-4000 ng/ml (prepared at RT yellow light) was used for the curve range. For Compounds 75b and 78a, 1.00 mg/mL of Compound 79 in 100% methanol Ria vials (Prepared at RT yellow light) was used as IS stock solution, and 60 ng/ml of Compound 79 in 80% methanol (Prepared at RT yellow light) was used as IS working solution. For Compound 76b, 1.00 mg/mL of Compound 44 in 100% methanol Ria vials (Prepared at RT yellow light) was used as IS stock solution, and 60 ng/ml of Compound 44 in 80% methanol (Prepared at RT yellow light) was used as IS working solution. A linear, 1/x2 fit type was used. The injection volume was 15 μL. Mobile Phase A was 0.1% Formic Acid in water at room temperature. Mobile Phase B was 100% methanol at room temperature. R0 wash solution was 80% methanol at room temperature. R^3 wash solution was IPA/MeOH/ACN/water (1:1:1:1) at room temperature. The column was Agilent Eclipse 50*2.1 mm 1.8 μm and the instrument was Shimadzu LC-40 UPLC and AB Sciez 6500+ with LCMS002.
For Compound 75b, using a pipette with Methanol-rinsed pipette tips, 25 μL of each sample was aliquoted (calibration curve sample, QC samples and blank matrix) to labeled 12×75-mm glass tubes. Using Methanol-rinsed pipette tips, 5.0 μL of IS of conc. 60 ng (Compound 79) was aliquoted to each standards and samples except Blank. All tubes were mixed on a multi-tube vortex for approximately 30 seconds. 50 μL of 10 mM Sodium bicarbonate were added. 1 ml of Ethyl Acetate was added. All tubes were mixed on a multi-tube vortex for approximately 5 minutes then centrifuged for 10 min at 5,000 rpm, 4° C. The sample was kept in methanol containing dry ice for a few seconds to freeze the Aqueous layer (flash freeze method). The upper organic layer was poured from the frozen tubes into the labeled 12×75-mm glass tubes then evaporated to dryness under nitrogen using Liquid Evaporator (30° C., ˜15 psi, ˜10 mins). 200 μl of reconstitution solution (0.1% Acetic acid:MeOH (60:40 v/v) were added into each tube. Samples were vortexed for 30 seconds then transferred to amber glass injection vials for injection.
For Compounds 76b and 78a, using a pipette, 25 μL of each sample were aliquoted (calibration curve sample, QC samples and blank matrix) to labeled 1.5 ml eppendorfs. Using a pipette, 5.0 μL of IS of conc. 100 ng (Cocktail IS) was aliquoted to each standards and samples except Blank. All tubes were mixed on a multi-tube vortex for approximately 30 seconds. 1 ml of tert-butyl methyl ether (TBME) was added. All tubes were mixed on a multi-tube vortex for approximately 5 minutes then centrifuged for 10 min at 10,000 rpm, 4° C. The sample was kept in methanol containing dry ice for few seconds to freeze the Aqueous layer (flash freeze method). The upper organic layer was poured from the frozen tubes into the labeled 12×75-mm rial vials then vaporated to dryness under nitrogen using Liquid Evaporator (30° C., −15 psi, 10 mins). 200 μl of reconstitution solution (10 mM Ammonium Formate: MeOH) (40:60 v/v) was added into each tube. […]

Row | SMILES | decrease in hydrolysis [1] [%] | Cmax [2] [ng/mL] | Tmax [2] [min] | AUC(0-t) [2] [ng·h/mL]
1 | Oc1ccc2c(c1)OC(c1ccc(O)c(C(F)(F)F)c1)C(O)C2 (single isomer, unassigned) [Compound 77b, 2-(4-hydroxy-3-(trifluoromethyl)phenyl)chromane-3,7-diol] | 25 |  |  | 
2 | Oc1cc(O)c2c(c1)OC(c1ccc(O)c(F)c1)C(O)C2 (single isomer, unassigned) [Compound 76b, 2-(3-fluoro-4-hydroxyphenyl)chromane-3,5,7-triol] |  | 89.3 | 15 | 45.7
3 | COc1cc(C2Oc3ccccc3CC2O)ccc1F (single isomer, unassigned) [Compound 75b, 2-(4-fluoro-3-methoxyphenyl)chroman-3-ol] |  | 138 | 90 | 133
4 | Oc1cc(O)c2c(c1)OC(c1ccccc1)C(O)C2 (single isomer, unassigned) [Compound 78a, 2-phenylchromane-3,5,7-triol] |  | 49.8 | 15 | 59.5
